The values that follow come from patent US10239933B2, “Compositions and methods for modulating thrombin generation” (The Children's Hospital of Philadelphia, priority 2011, dated 2019).

“Also recorded” adds a separate entry of the source. Like-named read-outs stand apart in the source and are kept apart here. Ends that are not written are not given here. * marks the point of attachment. X2 = CN(c1ccccc1)c1ccc2c(-c3ccccc3S(=O)(=O)N3CCC(C(=O)NCCCCCN4C(=O)CC(*)C4=O)CC3)c3ccc(=[N+](C)c4ccccc4)cc-3oc2c1; X1 = O=C1OC2(c3cc(F)c(O)cc3Oc3cc(O)c(F)cc32)c2ccc(N3C(=O)CC(*)C3=O)cc21

The target in one assay is T1, FV-810^R709Q (Homo sapiens, UniProt P12259, DEL839-1519/R737Q).
T1 construct: amino acids 1-28 are a signal peptide that is cleaved and numbering begins at residue 29; made in house
Description: Fluorescence anisotropy, binding of OG488-BR to FV-810^R709Q. The conditions noted are these: after incubation with thrombin.

For assay [1], the target named is T2, FV-810 (Homo sapiens, UniProt P12259, DEL839-1519).
T2 construct: amino acids 1-28 are a signal peptide that is cleaved and numbering begins at residue 29; made in house
Description: Fluorescence anisotropy, direct binding of OG488-BR to FV-810. (In general: Fluorescence polarisation rises when a labelled molecule tumbles more slowly, as on binding a larger partner.)

Another assay concerns the target T3, FV-810^QQ (Homo sapiens, UniProt P12259, DEL839-1519/R1573Q/R737Q).
T3 construct: amino acids 1-28 are a signal peptide that is cleaved and numbering begins at residue 29; made in house
Description: Fluorescence anisotropy, binding of OG488-BR to FV-810^QQ. Conditions: after incubation with thrombin.

A further assay deals with T4, FV-810^R1545Q (Homo sapiens, UniProt P12259, DEL839-1519/R1573Q).
T4 construct: amino acids 1-28 are a signal peptide that is cleaved and numbering begins at residue 29; made in house
Description: Fluorescence anisotropy, binding of OG488-BR to FV-810^R1545Q.

Assay [2] has as its target T5, rFVa (Homo sapiens, UniProt P12259).
T5 construct: thrombin rapidly cleaves Factor V at Arg709 to produce heavy chain (HC); rapidly cleaves at Arg1018 and Arg1545 to produce light chain (LC); made in house
T5 sequence (P12259 29-737 limits assumed): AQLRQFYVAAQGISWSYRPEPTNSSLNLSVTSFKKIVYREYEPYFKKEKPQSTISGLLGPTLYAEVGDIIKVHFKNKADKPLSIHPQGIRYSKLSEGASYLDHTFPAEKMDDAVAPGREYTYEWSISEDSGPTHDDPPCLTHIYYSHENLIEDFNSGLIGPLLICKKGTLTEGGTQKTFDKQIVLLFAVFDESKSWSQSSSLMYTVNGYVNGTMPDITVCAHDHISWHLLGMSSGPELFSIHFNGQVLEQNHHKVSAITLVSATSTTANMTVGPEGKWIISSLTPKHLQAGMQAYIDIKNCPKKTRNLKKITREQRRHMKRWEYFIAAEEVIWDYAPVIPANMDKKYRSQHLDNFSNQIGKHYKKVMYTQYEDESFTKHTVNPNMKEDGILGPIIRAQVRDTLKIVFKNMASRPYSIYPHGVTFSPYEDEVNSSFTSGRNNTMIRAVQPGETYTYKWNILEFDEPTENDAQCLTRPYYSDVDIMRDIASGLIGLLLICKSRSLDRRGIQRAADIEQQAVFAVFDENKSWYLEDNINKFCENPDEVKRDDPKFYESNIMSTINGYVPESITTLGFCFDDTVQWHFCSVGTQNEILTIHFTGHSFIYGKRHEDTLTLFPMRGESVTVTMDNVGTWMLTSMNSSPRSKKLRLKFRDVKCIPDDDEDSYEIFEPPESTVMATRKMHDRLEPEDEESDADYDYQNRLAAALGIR
T5 sequence (P12259 1574-2224 limits assumed): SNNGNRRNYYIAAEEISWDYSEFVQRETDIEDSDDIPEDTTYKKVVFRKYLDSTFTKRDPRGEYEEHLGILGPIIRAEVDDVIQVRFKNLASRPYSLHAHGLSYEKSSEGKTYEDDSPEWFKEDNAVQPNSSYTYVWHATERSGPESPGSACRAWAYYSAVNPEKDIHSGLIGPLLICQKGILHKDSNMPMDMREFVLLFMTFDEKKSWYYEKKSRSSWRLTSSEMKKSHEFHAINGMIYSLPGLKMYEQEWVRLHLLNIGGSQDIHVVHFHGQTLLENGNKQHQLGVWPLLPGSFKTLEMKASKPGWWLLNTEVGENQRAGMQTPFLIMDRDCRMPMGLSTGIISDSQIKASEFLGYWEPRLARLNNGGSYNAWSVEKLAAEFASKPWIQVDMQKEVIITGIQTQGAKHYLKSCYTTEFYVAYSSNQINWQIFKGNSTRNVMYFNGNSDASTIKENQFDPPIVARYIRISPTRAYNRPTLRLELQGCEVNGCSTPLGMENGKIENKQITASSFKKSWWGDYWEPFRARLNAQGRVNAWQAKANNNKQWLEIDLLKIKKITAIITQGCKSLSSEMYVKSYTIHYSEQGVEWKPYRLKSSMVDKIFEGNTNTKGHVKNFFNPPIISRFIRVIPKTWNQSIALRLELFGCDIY
Description: Fluorescence anisotropy, direct binding of OG488-BR to rFVa. Conditions: fluorescently labeled BR peptide, rFVa titrated.

Assay [3] concerns the target T2, FV-810. Description: Analytical ultracentrifugation (sedimentation velocity) of QSY7-BR with FV-810. It counts as binding. As for the experimental part: Analytical ultracentrifugation of QSY7 C5-maleimide-modified BR (QSY7-BR) was performed in a Beckman Optima XL-I analytical ultracentrifuge using absorbance optics. Sedimentation velocity was measured at 25,000 or 45,000 rpm with two-sector cells in an An-60 Ti rotor at 20° C. Sedimentation of QSY7-BR was followed measuring absorbance at 560 nm in cells containing 5 μM QSY7-BR alone or with 7 μM FV-810 or rFVa in 20 mM HEPES, 150 mM NaCl, and 2 mM CaCl2, pH 7.4. Sedimentation coefficients and molecular weights were determined by g(s*) analysis performed using DCDT+ (Philo, J. S. (2000) Anal. Biochem., 279:151-163).

For assay [4], the target named is T6, FVDT (Homo sapiens, UniProt P12259, DEL839-1519).
T6 construct: amino acids 1-28 are a signal peptide that is cleaved and numbering begins at residue 29; made in house
Description: Direct binding of TFPI to FVDT (FIG. 7C).

The target of assay [5] is T6, FVDT. Description: Inhibition of FVDT by the FVBR or TFPI peptide (FIG. 7B). In kind it is biochemical.
Assay [6] concerns the target T2, FV-810. Description: Clotting assay, FV-deficient plasma supplemented with FV-810 (FV-DT). In kind it is biochemical. The conditions noted are these: FV-deficient plasma; FIG. 8A: 0.25 nM FV-810, peptides at 5 μM. Here is the method:
(§1) Residual clotting activity of Factor V variants was determined by prothrombin time-based clotting assays. Factor V variants were incubated with either the FVBR or s46 peptide, after which the mixtures were mixed with Factor V deficient plasma and clotting times were measured. Where indicated, the Factor V variants were activated by pre-incubation with thrombin prior to addition of the peptides.
(§2) FV derivatives (500 nM) were prepared in assay buffer. Where noted, FV derivatives were pretreated with 10 nM thrombin for 15 minutes at 37° C., followed by the addition of 15 nM hirudin. Samples were diluted to 0.25 nM in assay buffer with 0.1% BSA, and the specific clotting activity was measured in FV-deficient plasma (George King Bio-Medical, Overland Park, Kans.) with TriniCLOT PT Excel (Tcoag, Wicklow, Ireland) as described (Camire et al. (1998) Biochemistry 37:11896-11906). The data are presented as the means±S.D.

The target in the next assay is T7, FXa/FV-DT (Homo sapiens, UniProt P12259, DEL839-1519).
T7 construct: amino acids 1-28 are a signal peptide that is cleaved and numbering begins at residue 29; made in house
Description: Prothrombin activation assay, prothrombinase containing FV-810 (FV-DT). In kind it is biochemical. The conditions noted are these: peptide titrated; 1.4 μM prothrombin, 50 μM PCPS, 25° C. As for the experimental part: Steady-state initial velocities of prothrombin cleavage were determined discontinuously at 25° C. by measuring the initial rate of thrombin formation. Reaction mixtures contained liposomes (75:25, PC:PS), prothrombin, the indicated Factor V variants, and the Factor V peptides FVBR or s46. The reactions were initiated by adding Factor Xa, and thrombin generation was determined at multiple time points by monitoring the cleavage of the chromogenic thrombin substrate S-2238.
Steady-state initial velocities of prothrombin cleavage were determined discontinuously at 25° C. as described (Camire, R. M. (2002) J. Biol. Chem., 277:37863-37870). Reaction mixtures containing PCPS (50 μM), DAPA (3 μM), prothrombin (1.4 μM), and either rFVa or the indicated FV-810 derivatives were incubated with B-domain peptides (0-10 μM) in assay buffer. […] Prothrombin activation was determined using the chromogenic thrombin substrate 52238 as described (Camire, R. M. (2002) J. Biol. Chem., 277:37863-37870).

The target in assay [7] is T2, FV-810. Description: Displacement of OG488-BR from preformed OG488-BR/FV-810 complex (fluorescence anisotropy). In kind it is binding.
Assay [8] concerns the target T5, rFVa. Description: Clotting assay, FV-deficient plasma supplemented with rFVa. It counts as biochemical. Conditions: FIG. 8B: 0.25 nM rFVa, peptides at 5 μM. As for the experimental part:
as §1, §2

As usually defined, the Kd is the concentration at which binding is half-saturated.

T2 sequence (P12259 with tags, fused parts or gaps DEL839-1519): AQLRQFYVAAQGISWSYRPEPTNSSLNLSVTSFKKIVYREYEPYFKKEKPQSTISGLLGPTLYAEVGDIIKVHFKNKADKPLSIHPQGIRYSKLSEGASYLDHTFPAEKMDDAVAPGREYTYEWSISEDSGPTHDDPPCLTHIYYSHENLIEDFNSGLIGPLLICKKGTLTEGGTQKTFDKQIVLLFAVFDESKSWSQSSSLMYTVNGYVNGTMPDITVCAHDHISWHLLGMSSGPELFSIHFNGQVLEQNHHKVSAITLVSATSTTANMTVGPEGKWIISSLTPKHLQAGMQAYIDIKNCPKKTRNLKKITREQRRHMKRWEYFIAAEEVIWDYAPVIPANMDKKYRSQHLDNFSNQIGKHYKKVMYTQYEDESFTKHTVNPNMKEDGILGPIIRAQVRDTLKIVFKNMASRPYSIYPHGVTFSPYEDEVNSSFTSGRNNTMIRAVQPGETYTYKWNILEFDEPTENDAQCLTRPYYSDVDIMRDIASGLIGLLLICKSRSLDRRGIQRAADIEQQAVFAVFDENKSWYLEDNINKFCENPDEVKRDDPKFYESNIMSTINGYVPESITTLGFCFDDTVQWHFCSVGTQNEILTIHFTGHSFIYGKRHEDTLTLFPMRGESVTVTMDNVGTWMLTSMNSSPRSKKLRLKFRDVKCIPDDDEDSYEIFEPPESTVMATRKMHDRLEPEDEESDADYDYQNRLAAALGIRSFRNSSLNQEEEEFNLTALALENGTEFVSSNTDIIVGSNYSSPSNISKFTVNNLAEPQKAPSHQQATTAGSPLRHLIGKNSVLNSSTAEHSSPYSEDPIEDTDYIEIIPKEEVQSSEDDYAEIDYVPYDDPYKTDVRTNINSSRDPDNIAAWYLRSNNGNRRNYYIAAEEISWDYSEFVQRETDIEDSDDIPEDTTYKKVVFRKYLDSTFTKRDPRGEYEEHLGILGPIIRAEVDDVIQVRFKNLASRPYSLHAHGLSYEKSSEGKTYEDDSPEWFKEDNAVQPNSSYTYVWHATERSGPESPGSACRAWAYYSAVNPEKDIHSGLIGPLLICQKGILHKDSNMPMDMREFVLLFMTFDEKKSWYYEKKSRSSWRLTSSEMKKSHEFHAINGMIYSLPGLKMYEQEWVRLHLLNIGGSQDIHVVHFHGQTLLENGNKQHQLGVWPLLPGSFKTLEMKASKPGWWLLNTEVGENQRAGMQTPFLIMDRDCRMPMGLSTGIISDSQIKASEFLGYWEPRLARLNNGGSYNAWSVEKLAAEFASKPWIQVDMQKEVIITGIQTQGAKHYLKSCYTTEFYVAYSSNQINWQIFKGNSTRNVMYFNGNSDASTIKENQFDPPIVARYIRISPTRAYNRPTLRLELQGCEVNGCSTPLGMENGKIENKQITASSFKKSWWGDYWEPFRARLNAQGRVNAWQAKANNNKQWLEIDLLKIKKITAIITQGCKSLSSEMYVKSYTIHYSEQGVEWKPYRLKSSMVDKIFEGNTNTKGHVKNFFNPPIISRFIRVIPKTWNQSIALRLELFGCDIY
T1 sequence (P12259 with tags, fused parts or gaps R737Q/DEL839-1519): as the sequence (P12259 with tags, fused parts or gaps DEL839-1519) above, with R709Q counted along it
T6 sequence (P12259 with tags, fused parts or gaps DEL839-1519): as the sequence (P12259 with tags, fused parts or gaps DEL839-1519) above
T4 sequence (P12259 with tags, fused parts or gaps DEL839-1519/R1573Q): as the sequence (P12259 with tags, fused parts or gaps DEL839-1519) above, with R864Q counted along it
T7 sequence (P12259 with tags, fused parts or gaps DEL839-1519): as the sequence (P12259 with tags, fused parts or gaps DEL839-1519) above
T3 sequence (P12259 with tags, fused parts or gaps R737Q/DEL839-1519/R1573Q): as the sequence (P12259 with tags, fused parts or gaps DEL839-1519) above, with R709Q, R864Q counted along it

“H-C(X1)SRAWGESTPLANKPGKQSGHPKFPRVRHKSLQVRQDGGKSRLKKSQFLIKTRKKKKEK-OH [OG488-BR]”: the “binding of OG488-BR to thrombin-cleaved FV-810^R709Q” value at FV-810^R709Q is “did not; also recorded: neither FV-810 nor FV-810^R709Q had detectable binding”. For the same molecule, the “binding of OG488-BR to FV-810 with EDTA” value on FV-810 [1] (10 mM EDTA added to the buffer) is listed as “no binding was observed”. For the same molecule, the “stoichiometry n at saturation” value on FV-810 [1] (20 or 40 nM OG488-BR, 50 μM PCPS, 25° C.) was 1.27±0.02 mol of FV-810/mol of OG488-BR. For the same molecule, the Kd worked out at 2.1 ± 0.3 nM at FV-810 [1] (FV-810 pretreated with buffer, 30 nM OG488-BR, 50 μM PCPS, assuming n=1); 2.07 ± 0.2 nM on FV-810 [1] (FV-810 titrated into 20 or 40 nM OG488-BR, 50 μM PCPS, 25° C.); 30 nM at FV-810^R1545Q (after incubation with thrombin, read-out: Kd, OG488-BR binding to thrombin-cleaved FV-810^R1545Q); 2 nM at FV-810^R1545Q (pretreated with buffer, assuming n=1, read-out: Kd, OG488-BR binding to FV-810^R1545Q). For the same molecule, the “binding of OG488-BR to thrombin-cleaved FV-810” value at FV-810 [1] (after incubation with thrombin) is on record as “did not; also recorded: neither FV-810 nor FV-810^R709Q had detectable binding”. Moreover, the “Kd, OG488-BR binding to thrombin-treated FV-810^QQ” value on FV-810^QQ is reported as “still bound”. For the same molecule, the “binding to rFVa/FVa” value at rFVa [2] is “no detectable binding”.
As to “H-C(X2)SRAWGESTPLANKPGKQSGHPKFPRVRHKSLQVRQDGGKSRLKKSQFLIKTRKKKKEK-OH [QSY7-BR]”, the sedimentation coefficient (s^020,w) at FV-810 [3] (5 μM QSY7-BR alone, absence of FV-810) was 0.98 S (Svedberg). In addition, on FV-810 [3] (5 μM QSY7-BR in the presence of 7 μM FV-810), the sedimentation coefficient is 9.8 S (Svedberg).
Consider “TFPI peptide: C-terminal tail peptide of tissue factor pathway inhibitor (amino acids 240-265, SEQ ID NO: 4) (KKGFIQRISKGGLIKTKRKRKKQRVK; peptide from human tissue factor pathway inhibitor)”, for which the “direct binding to FVDT” value with FVDT [4] was “directly bound”. For the same molecule, the “inhibition of FVDT” value in the assay with FVDT [5] was “inhibited FVBT in a manner similar to FVBR”.
“acetylated BR peptide: BR peptide acetylated at all Lys residues and the N terminus (Ac-SRAWGESTPLANK(Ac)PGK(Ac)QSGHPK(Ac)FPRVRHK(Ac)SLQVRQDGGK(Ac)SRLK(Ac)K(Ac)SQFLIK(Ac)TRK(Ac)K(Ac)K(Ac)K(Ac)EK(Ac))”: the “inhibition of clotting activity of FV-810 (FV-DT)” value (from here on “inhibition … of FV-810 (FV-DT)”) in the assay with FV-810 [6] was “no longer inhibited”.
For “bovine BR: Bos taurus FV basic region Ser938-Lys996 (SRTWGENIPFKNSHGKQSGHPTFLVTRRKPLQDRQDRRNSRLKEGLPLIRTRRKKKEEK)”, the “inhibition … of FV-810 (FV-DT)” value with FV-810 [6] is “inhibited”. The “inhibition of prothrombin activation with FV-810 (FV-DT)” value in the assay with FXa/FV-DT is on record as “inhibited”. In the assay with FV-810 [7] (30 nM OG488-BR, 20 nM FV-810, 50 μM PCPS, 25° C., assuming stoichiometry of 1 mol of FV-810/mol of BR peptide), this molecule yielded a Kd of 28.3 ± 0.6 nM. Further, in the assay with FV-810 [7] (displacement binding experiments), the “weaker binding to FV-810 than the human BR” value is roughly 10 fold.
For “platelet factor 4: cationic platelet factor 4 [reference compound]”, the “inhibition … of FV-810 (FV-DT)” value in the assay with FV-810 [6] is “neither low molecular weight poly-L-lysine (average Mr=1000-5000) (FIG. 8A) nor the cationic platelet factor 4 affected FV-810 activity”.
With poly-L-lysine [reference compound], on FV-810 [6], the “inhibition … of FV-810 (FV-DT)” value is listed as “neither low molecular weight poly-L-lysine (average Mr=1000-5000) (FIG. 8A) nor the cationic platelet factor 4 affected FV-810 activity”.

B1: BR+AR peptide: FV residues 968-1007 and 1492-1538, juxtaposed BR and AR sequences from FV-B104 (peptide)
peptide: SGHPKFPRVRHKSLQVRQDGGKSRLKKSQFLIKTRKKKKETDYIEIIPKEEVQSSEDDYAEIDYVPYDDPYKTDVRTNINSSRDPDN
With B1, the “inhibition of clotting activity of rFVa/FVa” value in the assay with rFVa [8] was “not inhibited”.
